{"source": "paper PMC7046683", "about": "(Frontiers in Oncology, 2020)", "key": {"[1]": {"experiment": "4OH-tamoxifen glucuronidation assay in liver microsomes, with or without morphine", "type": "in vitro ADME", "details": "male, C57/BL6J, mouse"}, "[2]": {"experiment": "Blood levels and metabolic ratios of tamoxifen and its metabolites after two tamoxifen injections, with saline or morphine (LC-MS/MS)", "details": "for Change of blood concentration, second vs first tamoxifen injection: saline co-injections", "description": "Experiments were performed with 11- to 29-week-old female C57BL/6J mice (23 ± 4 g; Charles River, L'Arbresle, France). Animals were housed according to a 12-h light–dark cycle, at a temperature of 22°C ± 2°C and provided with food and water ad libitum. All procedures were performed in accordance with European directives (2010/63/EU) and were approved by the regional ethics committee and the French Ministry of Agriculture (license no. APAFIS#16827-2018092113192911 v4 to YG).\nStatistical analysis was performed using GraphPad Prism 6 Software. […] Groups were compared using multiple t-tests."}, "[3]": {"details": "read-out: Km for morphine glucuronidation; mice; cited from earlier work"}, "[4]": {"details": "humans; cited from earlier work"}, "[5]": {"details": "mice; cited from earlier work"}, "[6]": {"details": "tamoxifen 10 mg/kg i.p. at 0 and 48 h"}, "[7]": {"details": "three i.p. injections of morphine 10 mg/kg at 0, 1 and 2 h"}}, "note": "Where two headings read alike, the source gives them in different places.", "data": [{"smiles": "CC/C(=C(\\c1ccc(O)cc1)c1ccc(OCCN(C)C)cc1)c1ccccc1", "note": "[4OH-tamoxifen]", "values": [{"measurement": "Km at 20 s", "setting": "[1]", "value": 68, "unit": "µM"}]}, {"smiles": "CC/C(=C(/c1ccc(OCCNC)cc1)c1ccc(O[C@@H]2O[C@H](C(=O)O)[C@@H](O)[C@H](O)[C@H]2O)cc1)c1ccccc1", "note": "[endoxifen-glucuronide]", "values": [{"measurement": "Change of blood concentration, second vs first tamoxifen injection", "setting": "[2]; [6]", "value": "did not vary significantly"}, {"measurement": "Increase of endoxifen-glucuronide/endoxifen ratio, second vs first tamoxifen injection", "setting": "[2]; tamoxifen 10 mg/kg i.p. twice, saline, t = 2 h", "value": 3, "unit": "fold"}]}, {"smiles": "CN1CC[C@]23c4c5ccc(O[C@@H]6O[C@H](C(=O)O)[C@@H](O)[C@H](O)[C@H]6O)c4O[C@H]2[C@@H](O)C=C[C@H]3[C@H]1C5", "note": "[M3G, morphine-3-glucuronide]", "values": [{"measurement": "Time at which the highest blood concentration was reached", "setting": "[7]", "value": 2, "unit": "h"}, {"measurement": "Highest concentration in the blood", "setting": "three i.p. injections of morphine 10 mg/kg at 0, 1 and 2 h, mean ± SEM", "value": "9,773 ± 1,274 pmol/ml"}]}, {"smiles": "CC/C(=C(\\c1ccccc1)c1ccc(OCCNC)cc1)c1ccccc1", "note": "[N-desmethyltamoxifen]", "values": [{"measurement": "Change of blood concentration, second vs first tamoxifen injection", "setting": "[2]; [6]", "value": "significant increase"}, {"measurement": "Change of blood concentration after tamoxifen + morphine vs first injection of tamoxifen alone", "setting": "[2]; tamoxifen 10 mg/kg i.p. at 0 and 48 h, morphine 10 mg/kg i.p. at 48, 49 and 50 h", "value": "Only a tendency"}, {"measurement": "N-desmethyltamoxifen/tamoxifen ratio after morphine", "setting": "[2]; tamoxifen + morphine 3 x 10 mg/kg i.p.", "value": "not altered"}, {"measurement": "N-desmethyltamoxifen/tamoxifen ratio, second vs first tamoxifen injection", "setting": "[2]; tamoxifen twice, saline", "value": "no difference"}]}, {"smiles": "CC/C(=C(\\c1ccc(OCCN(C)C)cc1)c1ccc(O[C@H]2O[C@@H](C(=O)O)[C@H](O)[C@@H](O)[C@@H]2O)cc1)c1ccccc1", "note": "[4OH-tamoxifen-glucuronide]", "values": [{"measurement": "Change of blood concentration, second vs first tamoxifen injection", "setting": "[2]; [6]", "value": "significant increase"}]}, {"smiles": "CN1CC[C@]23c4c5ccc(O)c4O[C@H]2[C@@H](O)C=C[C@H]3[C@H]1C5", "note": "[morphine, reference compound]", "values": [{"measurement": "Presence in blood after 8 h", "setting": "three i.p. injections of morphine 10 mg/kg", "value": "still present"}, {"measurement": "Time at which the highest blood concentration was reached", "setting": "[7]", "value": 2, "unit": "h"}, {"measurement": "Km", "setting": "[3]", "value": 500, "unit": "µM"}]}, {"smiles": "CC/C(=C(\\c1ccccc1)c1ccc(OCCN(C)C)cc1)c1ccccc1", "note": "[tamoxifen]", "values": [{"measurement": "Half-life", "setting": "[4]", "value": 27, "unit": "h"}, {"measurement": "Half-life", "setting": "[5]", "value": 6.8, "unit": "h"}]}]}
